Measured values: ChEMBL document CHEMBL1909046, “DrugMatrix in vitro pharmacology data”
pIC50: −log10 of the molar value.

How the values were obtained:
[1] = biological target: Mitogen-activated protein kinase 3 (Homo sapiens, UniProt P27361); test: DRUGMATRIX: Protein Serine/Threonine Kinase, ERK1 enzyme inhibition (substrate: Myelin Basic Protein); parameters: species or system Escherichia coli; conditions: Not Active = under 50% inhibition at 10 µM
Cytochrome P450 2C9 = Cytochrome P450 2C9 (Homo sapiens, UniProt P11712); conditions: bti-tn-5b1-4; note: in other assays of this panel Not Active means under 50% inhibition at 10 µM
[2] = DRUGMATRIX: Platelet-Derived Growth Factor (PDGF) radioligand binding (ligand: [125I] PDGF); type: cell-based; conditions: nih3t3; Not Active = under 50% inhibition at 10 µM
[3] = DRUGMATRIX: Potassium Channel [KATP] radioligand binding (ligand: [3H] Glyburide); type: cell membranes, Membrane; conditions: hit-t15; Not Active = under 50% inhibition at 10 µM
[4] = biological target: T1, Cholecystokinin receptor type A (Homo sapiens, UniProt P32238); type: cell membranes, Membrane; conditions: 1321-n1; note: in other assays of this panel Not Active means under 50% inhibition at 10 µM
T1 sequence (P32238 whole entry): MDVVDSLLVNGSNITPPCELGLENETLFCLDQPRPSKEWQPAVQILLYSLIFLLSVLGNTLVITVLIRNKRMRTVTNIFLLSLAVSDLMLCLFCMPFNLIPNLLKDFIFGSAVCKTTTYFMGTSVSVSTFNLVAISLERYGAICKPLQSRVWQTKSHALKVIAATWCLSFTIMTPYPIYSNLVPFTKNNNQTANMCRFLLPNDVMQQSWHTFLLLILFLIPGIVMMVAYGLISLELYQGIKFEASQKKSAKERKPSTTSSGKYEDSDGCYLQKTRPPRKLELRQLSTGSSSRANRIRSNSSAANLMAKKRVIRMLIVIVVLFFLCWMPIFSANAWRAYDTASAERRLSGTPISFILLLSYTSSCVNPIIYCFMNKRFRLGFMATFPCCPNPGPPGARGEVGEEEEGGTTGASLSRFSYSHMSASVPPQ

Cathepsin G = biological target: T2, Cathepsin G (Homo sapiens, UniProt P08311); type: tissue-based; conditions: neutrophil;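 note: inhibition of Cathepsin G enzyme activity, tested on an AMC-conjugated peptide substrate; in other assays of this panel Not Active means under 50% inhibition at 10 µM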
T2 sequence (P08311 whole entry): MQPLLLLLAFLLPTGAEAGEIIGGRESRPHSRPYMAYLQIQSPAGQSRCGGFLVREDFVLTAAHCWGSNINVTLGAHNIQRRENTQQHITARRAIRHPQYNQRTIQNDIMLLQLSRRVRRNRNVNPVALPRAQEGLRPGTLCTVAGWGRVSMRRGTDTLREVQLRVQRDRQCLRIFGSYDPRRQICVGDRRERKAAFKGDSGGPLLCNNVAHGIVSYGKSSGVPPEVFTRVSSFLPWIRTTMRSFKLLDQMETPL

Cytochrome P450 2E1 = Cytochrome P450 2E1 (Homo sapiens, UniProt P05181); conditions: bti-tn-5b1-4; note: in other assays of this panel Not Active means under 50% inhibition at 10 µM
[5] = biological target: Mitogen-activated protein kinase 1 (Homo sapiens, UniProt P28482); test: DRUGMATRIX: Protein Serine/Threonine Kinase, ERK2 enzyme inhibition (substrate: Myelin Basic Protein); parameters: species or system Escherichia coli; conditions: Not Active = under 50% inhibition at 10 µM
Leukotriene C4 synthase = biological target: T3, Leukotriene C4 synthase (Cavia porcellus, UniProt A6XA80); type: tissue-based, Lung
T3 sequence (A6XA80 whole entry): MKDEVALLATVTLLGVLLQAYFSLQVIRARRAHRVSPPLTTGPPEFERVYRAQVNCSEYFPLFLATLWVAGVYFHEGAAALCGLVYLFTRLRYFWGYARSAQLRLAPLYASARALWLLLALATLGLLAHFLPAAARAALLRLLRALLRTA

Mitogen-activated protein kinase 3, sequence (P27361 whole entry): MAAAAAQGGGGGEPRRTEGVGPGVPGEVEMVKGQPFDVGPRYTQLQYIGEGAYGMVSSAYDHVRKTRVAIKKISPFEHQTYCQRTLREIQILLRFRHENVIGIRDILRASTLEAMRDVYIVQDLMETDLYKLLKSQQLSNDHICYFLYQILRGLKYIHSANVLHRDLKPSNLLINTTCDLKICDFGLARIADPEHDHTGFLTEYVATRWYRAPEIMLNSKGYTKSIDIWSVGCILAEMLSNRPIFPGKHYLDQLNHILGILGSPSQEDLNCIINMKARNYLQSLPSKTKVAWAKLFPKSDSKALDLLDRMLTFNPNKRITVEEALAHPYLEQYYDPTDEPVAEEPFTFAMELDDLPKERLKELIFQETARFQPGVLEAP
Cytochrome P450 2E1, sequence (P05181 whole entry): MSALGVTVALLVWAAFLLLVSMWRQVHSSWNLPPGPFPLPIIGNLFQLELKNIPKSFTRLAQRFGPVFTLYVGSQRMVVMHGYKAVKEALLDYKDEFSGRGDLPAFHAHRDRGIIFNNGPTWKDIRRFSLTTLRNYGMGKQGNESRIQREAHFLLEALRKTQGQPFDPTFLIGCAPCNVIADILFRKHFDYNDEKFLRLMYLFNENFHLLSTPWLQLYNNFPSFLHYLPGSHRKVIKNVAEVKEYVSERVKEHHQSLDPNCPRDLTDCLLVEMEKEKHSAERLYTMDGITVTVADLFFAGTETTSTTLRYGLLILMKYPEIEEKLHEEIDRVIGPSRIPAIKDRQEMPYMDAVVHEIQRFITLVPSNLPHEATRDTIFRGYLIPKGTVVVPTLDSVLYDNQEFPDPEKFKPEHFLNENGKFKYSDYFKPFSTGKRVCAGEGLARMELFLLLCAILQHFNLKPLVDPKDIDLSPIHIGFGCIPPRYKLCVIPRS
Mitogen-activated protein kinase 1, sequence (P28482 whole entry): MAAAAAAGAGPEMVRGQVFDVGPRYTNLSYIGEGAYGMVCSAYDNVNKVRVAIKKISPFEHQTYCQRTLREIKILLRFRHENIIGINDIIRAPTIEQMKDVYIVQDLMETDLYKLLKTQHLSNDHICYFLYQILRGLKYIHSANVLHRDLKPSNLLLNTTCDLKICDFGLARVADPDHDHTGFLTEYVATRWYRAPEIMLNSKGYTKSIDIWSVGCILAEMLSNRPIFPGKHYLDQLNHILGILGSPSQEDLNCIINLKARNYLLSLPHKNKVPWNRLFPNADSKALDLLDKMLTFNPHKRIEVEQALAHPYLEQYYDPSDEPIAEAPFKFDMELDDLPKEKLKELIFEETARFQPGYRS
Cytochrome P450 2C9, sequence (P11712 whole entry): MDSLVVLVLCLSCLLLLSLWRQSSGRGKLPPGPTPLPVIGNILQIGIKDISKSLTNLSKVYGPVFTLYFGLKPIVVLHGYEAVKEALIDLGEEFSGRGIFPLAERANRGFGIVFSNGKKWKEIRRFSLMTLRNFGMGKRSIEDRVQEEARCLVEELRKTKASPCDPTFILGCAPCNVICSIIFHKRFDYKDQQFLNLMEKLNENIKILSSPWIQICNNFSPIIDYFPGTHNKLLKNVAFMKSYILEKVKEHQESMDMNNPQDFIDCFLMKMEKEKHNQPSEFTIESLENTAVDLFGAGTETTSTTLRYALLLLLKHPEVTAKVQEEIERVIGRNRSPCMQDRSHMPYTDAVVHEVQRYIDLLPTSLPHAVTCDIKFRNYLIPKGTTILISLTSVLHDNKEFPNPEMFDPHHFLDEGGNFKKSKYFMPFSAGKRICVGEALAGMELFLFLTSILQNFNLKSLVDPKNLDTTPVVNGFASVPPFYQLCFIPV

| Molecule | IC50 [1] | IC50 (Cytochrome P450 2C9) | Ki (Cytochrome P450 2C9) | IC50 [2] | Ki [2] | IC50 [3] | Ki [3] | IC50 [4] | IC50 (Cathepsin G) | IC50 (Cytochrome P450 2E1) | Ki (Cytochrome P450 2E1) | IC50 [5] | IC50 (Leukotriene C4 synthase) | Ki [1] | Ki [4] | Ki (Cathepsin G) | Ki [5] | Ki (Leukotriene C4 synthase) | pIC50 (Cathepsin G; read-out: IC50) | pIC50 ([5]; read-out: IC50) |
| --- | --- | --- | --- | --- | --- | --- | --- | --- | --- | --- | --- | --- | --- | --- | --- | --- | --- | --- | --- | --- |
| CC(O)CO (stereo not given) [PROPYLENE GLYCOL] | Not Active | Not Active | Not Active | Not Active | Not Active | Not Active | Not Active | Not Active | Not Active | Not Active | Not Active | Not Active | Not Active |  |  |  |  |  |  |  |
| CADMIUM ACETATE | Not Active | Not Active | Not Active | Not Active | Not Active | Not Active | Not Active | Not Active | Not Active | Not Active | Not Active | Not Active | Not Active | Not Active | Not Active | Not Active | Not Active | Not Active |  |  |
| LEAD (II) ACETATE | Not Active | Not Active | Not Active | Not Active | Not Active | Not Active | Not Active | Not Active | Not Active | Not Active | Not Active | Not Active | Not Active | Not Active | Not Active | Not Active | Not Active | Not Active |  |  |
| LIPOPOLYSACCHARIDE E. COLI O55:B5 | Not Active | Not Active | Not Active | Not Active | Not Active | Not Active | Not Active | Not Active |  | Not Active | Not Active |  | Not Active | Not Active | Not Active |  |  | Not Active | 6.07 | 6.49 |
